{"source": "paper PMC4738175", "about": "(Cancer letters, 2015)", "key": {"[1]": {"conditions": "cited from earlier work"}, "[2]": {"test_system": "sEH", "assay": "Plasma oxylipin metabolic profile by LC-MS/MS in mice implanted with PK03 cells", "format": "in vivo"}, "[3]": {"assay": "in vivo", "conditions": "male, Swiss Webster, mouse, po, 1 mg/kg"}, "[4]": {"test_system": "PK03 tumors", "assay": "Histopathology and immunohistochemistry", "conditions": "10mg/kg; for number of MPO-labeled neutrophils/macrophages per high power field: 40X objective lens, P< 0.05 vs control; for tumor morphology vs PK03 control tumors: histopathology"}, "[5]": {"test_system": "phosphorylation of MEK1/2 and ERK1/2", "assay": "Western blot of phosphorylated MEK1/2 and ERK1/2 in PK03 cells", "format": "cell-based, mouse", "conditions": "PK03 cells, 3, 10 or 30μM, 24 hours"}, "[6]": {"test_system": "phosphorylation of c-RAF", "assay": "Western blot of phosphorylated c-RAF in PK03 cells", "format": "cell-based, mouse", "conditions": "PK03 cells, 3, 10 or 30μM, 24 hours"}, "[7]": {"test_system": "PK03 cells", "assay": "Colony formation assay in PK03 cells", "conditions": "Mus musculus, read-out: IC50 dose, PK03 cell growth"}, "[8]": {"target": "T1, sEH (Homo sapiens, UniProt P34913)", "T1 sequence (P34913 1-555)": "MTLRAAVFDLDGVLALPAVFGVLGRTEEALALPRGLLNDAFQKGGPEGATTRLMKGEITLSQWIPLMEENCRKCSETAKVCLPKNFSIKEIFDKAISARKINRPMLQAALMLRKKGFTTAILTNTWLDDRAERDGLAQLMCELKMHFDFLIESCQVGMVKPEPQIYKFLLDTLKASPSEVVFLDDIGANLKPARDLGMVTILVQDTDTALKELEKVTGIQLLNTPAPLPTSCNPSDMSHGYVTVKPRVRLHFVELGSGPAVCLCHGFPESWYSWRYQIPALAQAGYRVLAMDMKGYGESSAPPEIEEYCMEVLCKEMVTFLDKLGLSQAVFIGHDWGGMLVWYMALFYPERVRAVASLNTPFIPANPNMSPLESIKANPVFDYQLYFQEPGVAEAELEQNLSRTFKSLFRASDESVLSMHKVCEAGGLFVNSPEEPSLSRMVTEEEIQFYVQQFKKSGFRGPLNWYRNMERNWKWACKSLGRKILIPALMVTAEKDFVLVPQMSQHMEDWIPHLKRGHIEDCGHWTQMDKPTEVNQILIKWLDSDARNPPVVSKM", "assay": "sEH enzyme assay", "format": "biochemical", "conditions": "read-out: sEH IC50"}, "[9]": {"test_system": "phosphorylated ERK1/2", "assay": "Immunohistochemical staining of phosphorylated ERK1/2 in PK03 tumors", "conditions": "10mg/kg, n = 3 mice/group, vs PK03 control"}, "[10]": {"assay": "Toxicity in mice", "format": "in vivo", "conditions": "35 days treatment"}, "[11]": {"test_system": "PK03 cells", "conditions": "10mg/kg body weight in drinking water, end of 5 weeks, vs PK03 control"}}, "data": [{"smiles": "CNC(=O)c1cc(Oc2ccc(NC(=O)Nc3ccc(Cl)c(C(F)(F)F)c3)cc2)ccn1", "note": "[Sorafenib, reference compound]", "values": [{"measurement": "clinically achievable plasma concentration", "setting": "[1]", "value": 10, "unit": "µM"}, {"measurement": "effect on cyclooxygenase and lipoxygenase mediated metabolites (prostaglandins, thromboxane, leukotrienes, HETE)", "setting": "[2]", "value": "no significant difference"}, {"measurement": "Tmax", "setting": "[3]", "value": 2, "unit": "h"}, {"measurement": "half-life", "setting": "[3]", "value": "1.5 ± 0.5", "unit": "h"}, {"measurement": "number of MPO-labeled neutrophils/macrophages per high power field", "setting": "[4]", "value": "15.1 ± 9.8"}, {"measurement": "tumor morphology vs PK03 control tumors", "setting": "[4]", "value": "more glandular differentiation with lumen formation and less inflammatory cells reaction"}, {"measurement": "inhibition of phosphorylation of MEK1/2 and ERK1/2", "setting": "[5]", "value": "significantly inhibited"}, {"measurement": "inhibition of phosphorylation of c-RAF", "setting": "[6]", "value": "but not by sorafenib or t-AUCB"}, {"measurement": "IC50", "setting": "[7]", "value": 9, "unit": "µM"}]}, {"smiles": "CNC(=O)c1cc(O[C@H]2CC[C@@H](NC(=O)Nc3ccc(Cl)c(C(F)(F)F)c3)CC2)ccn1", "note": "[c-CUPM]", "values": [{"measurement": "IC50", "setting": "[8]", "value": 0.0005, "unit": "µM"}]}, {"smiles": "CNC(=O)c1cc(O[C@H]2CC[C@H](NC(=O)Nc3ccc(Cl)c(C(F)(F)F)c3)CC2)ccn1", "note": "[t-CUPM, trans-4-{4-[3-(4-chloro-3-trifluoromethyl-phenyl)-ureido]-cyclohexyloxy}-pyridine-2-carboxylic acid methylamide]", "values": [{"measurement": "effect on cyclooxygenase and lipoxygenase mediated metabolites (prostaglandins, thromboxane, leukotrienes, HETE)", "setting": "[2]", "value": "no significant difference"}, {"measurement": "half-life", "setting": "[3]", "value": "2.2 ± 1.6", "unit": "h"}, {"measurement": "number of MPO-labeled neutrophils/macrophages per high power field", "setting": "[4]", "value": "12.4 ± 6.1"}, {"measurement": "tumor morphology vs PK03 control tumors", "setting": "[4]", "value": "more glandular differentiation with lumen formation and less inflammatory cells reaction"}, {"measurement": "inhibition of phosphorylation of MEK1/2 and ERK1/2", "setting": "[5]", "value": "significantly inhibited"}, {"measurement": "staining intensity of phosphorylated ERK1/2", "setting": "[9]", "value": "60 ± 19.2"}, {"measurement": "inhibition of phosphorylation of c-RAF", "setting": "[6]", "value": "significantly inhibited"}, {"measurement": "toxic effect grossly and histopathologically", "setting": "[10]", "value": "did not produce any toxic effect"}, {"measurement": "IC50", "setting": "[7]", "value": 8.1, "unit": "µM"}, {"measurement": "tumor size", "setting": "[11]", "value": "275.9 ± 68.9", "unit": "mm^3"}, {"measurement": "tumor weight", "setting": "[11]", "value": "0.25 ± 0.06", "unit": "g"}]}]}
